The nature of this data set: Examination on stability: storage at 40° C. and 75% RH for 1 month, state of sample and composition changes. It is filed as physicochemical. Here is the method: Samples 1-1 to 1-4 as shown below were prepared and stored at 40° C. and […] relative humidity (RH) for 1 month.
Pemafibrate as it was placed in a glass vessel with a lid opened, and labeled as Sample 1-1.
Aminoalkyl methacrylate copolymer E (EUDRAGIT EPO: Evonick Rohm GmbH) as it was placed in a glass vessel with a lid opened, and labeled as Sample 1-2.
Aminoalkyl methacrylate copolymer E (EUDRAGIT EPO: Evonick Rohm GmbH) was mixed with pemafibrate in a ratio of 1 part by mass to 1 part by mass of pemafibrate to obtain a mixture. The mixture was placed in a glass vessel with a lid opened, and labeled as Sample 1-3.
Aminoalkyl methacrylate copolymer E (EUDRAGIT EPO: Evonick Röhm GmbH) was mixed with pemafibrate in a ratio of 1 part by mass to 1 part by mass of pemafibrate to obtain a mixture. The mixture was taken in an amount of 0.25 g into a glass bottle (a bottle No. 2K, manufactured by ISOYA GLASS INDUSTRY) and closed with a lid, and labeled as Sample 1-4.

For `CC[C@@H](Oc1cccc(CN(CCCOc2ccc(OC)cc2)c2nc3ccccc3o2)c1)C(=O)O` [Sample 1-1, (2R)-2-[3-([1,3-Benzoxazol-2-yl[3-(4-methoxyphenoxy)propyl]amino]methyl)phenoxy]butanoic acid], where the note is “1 month, start of storage compared with 1 month”, the “Change of state / presence or absence of composition changes after storage” value is on record as “maintained the same state”. For the same molecule, the “State of mixture, 1 month later” value (after storage for 1 month, glass vessel with lid opened (1-1 to 1-3) or closed glass bottle (1-4)) is “White powder”. Besides, the “State of mixture, immediately after the start of storage” value (start of storage, glass vessel with lid opened (1-1 to 1-3) or closed glass bottle (1-4)) was “White powder”.

The record behind these values is patent US20220000786A1, “PHARMACEUTICAL PREPARATION” (KOWA COMPANY, LTD., priority 2018, published 2022).
